The values that follow come from patent US11464802B2, “3-substituted piperidine compounds for Cbl-b inhibition, and use thereof” (Nurix Therapeutics, Inc., priority 2019, dated 2022).

For assay [1], the system named is primary human total T-cells. Put plainly: Primary human total T-cell activation: CD25 surface staining, Biological Example 2. It is filed as cell-based. As to conditions: 48 hours, fold change over baseline; for fold induction at 1 µM: inhibitor 1 μM.
The target of assay [2] is T1, Cbl-b (Homo sapiens (Human), UniProt Q13191). The experiment in a line: Cbl-b displacement assay (Cbl-b inhibition assay), TR-FRET probe displacement, Biological Example 1. Type of assay: binding. In outline:
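N-terminally Avitagged, biotinylated truncated Cbl-b (0.5 nM "High" or 0.125 nM "Low", final) pre-incubated 1 h at room temperature with compound (1% DMSO) in HEPES pH 7.5 buffer. Then 150 nM BODIPY FL probe (~EC40) plus 2 nM streptavidin-terbium for 1 h; TR-FRET read at 520/620 nm.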

The target of assay [3] is T1, Cbl-b. Put plainly: Cbl-b displacement assay (Cbl-b inhibition assay), Biological Example 8. Type of assay: binding. As to conditions: Table 8-1. On the procedure: (§1) Candidate compounds were evaluated for their ability to bind and inhibit Cbl-b, an E3 ubiquitin-protein ligase, as evidenced by their ability to displace a fluorophore-labeled probe bound to Cbl-b.
(§2) The ability of candidate compounds to displace a known inhibitor and thereby inhibit Cbl-b activity was measured by monitoring the interaction of Cbl-b with a fluorophore-labeled probe in the presence of the candidate compound. A truncated variant of Cbl-b (UniProt number Q13191) containing residues 36-427 and an Avitag at its N-terminus was co-expressed with BirA biotin ligase and purified using a standard protocol (see Dou et al., Nature Structural and Molecular Biology 8: 982-987, 2013; Avidity LLC).
(§3) Fluorescently-labeled inhibitor probe was synthesized and tagged with BODIPY FL. Cbl-b displacement assays were performed in a 384-well plate at room temperature in a 10 μl reaction volume by pre-incubating 0.5 nM Cbl-b or 0.125 nM Cbl-b (final concentration, indicated as “High” and “Low”, respectively) in an assay buffer containing 20 mM HEPES pH 7.5, 150 mM NaCl, 0.01% Triton X-100, 0.01% BSA and 0.5 mM TCEP in the presence of a candidate compound in 1% DMSO (final concentration) for 1 hour. After incubation in the presence of the candidate compound, the plate was incubated for an additional 1 hour in the presence of an approximate EC40 binding saturation consisting of 150 nM fluorescently-labeled inhibitor probe and 2 nM Streptavidin-Terbium (Cisbio) (final concentrations). Following the 1 hour incubation, the plates were read for TR-FRET signal at 520/620 nM using an Envision plate reader (Perkin Elmer).
(§4) The resulting data for the Cbl-b activity assays were analyzed using standard methods to determine the IC50 values for the tested compounds.

Assay [4] concerns primary human total T-cells. The experiment in a line: Primary human total T-cell activation: CD25 surface staining, Biological Example 9. As to conditions: 48 hours, fold change over baseline; for fold induction at 0.3 µM: inhibitor 0.3 μM; for fold induction at 0.3 µM / fold induction at 3 µM: Table 9-1; for fold induction at 1 µM: inhibitor 1 μM; for fold induction at 3 µM: inhibitor 3 μM. It is filed as cell-based.

The test system of assay [5] is primary human total T-cells. Put plainly: Primary human total T-cell activation: IL-2 secretion, Biological Example 13. Type of assay: cell-based. Conditions: 48 hours, fold change over baseline; for fold induction at 0.3 µM: inhibitor 0.3 μM; for fold induction at 0.3 µM / fold induction at 3 µM: Table 13-1; for fold induction at 1 µM: inhibitor 1 μM; for fold induction at 3 µM: inhibitor 3 μM.

In assay [6] the test system is primary human total T-cells. Put plainly: Primary human total T-cell activation: CD25 surface staining, Biological Example 13. It is filed as cell-based. As to conditions: 48 hours, fold change over baseline; for fold induction at 0.3 µM: inhibitor 0.3 μM; for fold induction at 0.3 µM / fold induction at 3 µM: Table 13-1; for fold induction at 1 µM: inhibitor 1 μM; for fold induction at 3 µM: inhibitor 3 μM.

For assay [7], the target named is T1, Cbl-b. Put plainly: Cbl-b displacement assay (Cbl-b inhibition assay), Biological Example 12. It is filed as binding. As to conditions: Table 12-1. On the procedure:
as §1, §2, §3, §4

The subject of assay [8] is primary human total T-cells. Put plainly: Primary human total T-cell activation: IL-2 secretion, Biological Example 2. It is filed as cell-based. Conditions: 48 hours, fold change over baseline; for fold induction at 1 µM: inhibitor 1 μM.
The test system of assay [9] is primary human total T-cells. The experiment in a line: Primary human total T-cell activation: IL-2 secretion, Biological Example 9. Type of assay: cell-based. As to conditions: 48 hours, fold change over baseline; for fold induction at 0.3 µM: inhibitor 0.3 μM; for fold induction at 0.3 µM / fold induction at 3 µM: Table 9-1; for fold induction at 1 µM: inhibitor 1 μM; for fold induction at 3 µM: inhibitor 3 μM.

The mark [10] stands for this setting: anti-CD3/anti-CD28 co-stimulation, inhibitor 0.3 μM.
Where [11] appears, read: 0.5 nM Cbl-b final concentration (High), read-out: Cbl-b IC50 (High).
Where [12] appears, read: anti-CD3/anti-CD28 co-stimulation.
Setting [13] is: anti-CD3/anti-CD28 co-stimulation, Table 9-1, read-out: CD25 staining CD3/CD28 1 μM.
[14] abbreviates: anti-CD3 alone, Table 9-1, read-out: CD25 staining CD3 1 μM.
Where [15] appears, read: anti-CD3/anti-CD28 co-stimulation, Table 13-1, read-out: IL-2 secretion CD3/CD28 1 μM.
Where [16] appears, read: anti-CD3 alone, Table 13-1, read-out: IL-2 secretion CD3 1 μM.
The mark [17] stands for this setting: anti-CD3/anti-CD28 co-stimulation, Table 13-1, read-out: CD25 staining CD3/CD28 1 μM.
Setting [18] is: anti-CD3 alone, Table 13-1, read-out: CD25 staining CD3 1 μM.
Where [19] appears, read: anti-CD3/anti-CD28 co-stimulation, Table 9-1, read-out: IL-2 secretion CD3/CD28 1 μM.
[20] abbreviates: anti-CD3 alone, Table 9-1, read-out: IL-2 secretion CD3 1 μM.
The mark [21] stands for this setting: 0.125 nM Cbl-b final concentration (Low), read-out: Cbl-b IC50 (Low).

T1 sequence (Q13191 36-427): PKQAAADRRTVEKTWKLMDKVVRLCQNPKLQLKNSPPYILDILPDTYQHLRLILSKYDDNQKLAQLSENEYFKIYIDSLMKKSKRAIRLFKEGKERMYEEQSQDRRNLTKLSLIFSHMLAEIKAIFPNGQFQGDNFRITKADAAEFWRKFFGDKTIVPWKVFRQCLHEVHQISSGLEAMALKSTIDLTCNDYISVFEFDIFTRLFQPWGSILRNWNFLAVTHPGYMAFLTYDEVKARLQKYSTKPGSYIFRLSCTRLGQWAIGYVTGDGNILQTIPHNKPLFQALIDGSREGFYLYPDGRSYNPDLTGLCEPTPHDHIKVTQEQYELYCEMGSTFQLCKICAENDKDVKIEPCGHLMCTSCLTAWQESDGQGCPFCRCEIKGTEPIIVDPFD

Broadly, the IC50 is the point on the concentration scale where inhibition reaches its midpoint. As for `C[C@@H]1C[C@H](C)CN(Cc2cc3c(c(C(F)(F)F)c2)CN(c2cccc(C4(Cc5nncn5C)COC4)c2)C3=O)C1` [Compound 2, 6-{[(3R,5S)-3,5-dimethylpiperidin-1-yl]methyl}-2-(3-{3-[(4-methyl-1,2,4-triazol-3-yl)methyl]oxetan-3-yl}phenyl)-4-(trifluoromethyl)-3H-isoindol-1-one], the fold induction at 0.3 µM is less than 1.24 in assay [1] (setting [10]); less than 1.24 in [4] (setting [12]); 11 to 15 in assay [5] (setting [12]); less than 1.24 in assay [6] (setting [12]); more than 15 in assay [8] (setting [10]); 10 to 15 in assay [9] (setting [12]). Moreover, the fold induction at 1 µM in [1] (anti-CD3/anti-CD28 co-stimulation, read-out: CD25 staining CD3/CD28 1 μM) is less than 1.24; in assay [1] (anti-CD3 alone, read-out: CD25 staining CD3 1 μM), 1.05 to 1.14; in [4] (setting [13]) it was less than 1.24; in assay [4] (setting [14]), 1.05 to 1.14; in assay [5] (setting [15]), 11 to 15; in assay [5] (setting [16]), 0.34 to 0.66. For the same molecule, the fold induction at 1 µM in assay [6] (setting [17]) was less than 1.24; in [6] (setting [18]), 1.05 to 1.14; in assay [8] (anti-CD3/anti-CD28 co-stimulation, read-out: IL-2 secretion CD3/CD28 1 μM), more than 15; in assay [8] (anti-CD3 alone, read-out: IL-2 secretion CD3 1 μM) it was 0.34 to 0.66; in assay [9] (setting [19]) it was 10 to 15; in assay [9] (setting [20]), 0.34 to 0.66. Moreover, the fold induction at 3 µM was 1.05 to 1.14 in [1] (anti-CD3 alone, inhibitor 3 μM); 1.05 to 1.14 in assay [4] (anti-CD3 alone); more than 0.66 in assay [5] (anti-CD3 alone); 1.05 to 1.14 in assay [6] (anti-CD3 alone); more than 0.66 in assay [8] (anti-CD3 alone, inhibitor 3 μM); more than 0.66 in [9] (anti-CD3 alone). Besides, the IC50 on Cbl-b [2] (0.5 nM Cbl-b final concentration (High), read-out: Cbl-b activity IC50 (High)) is less than 1 nM; on Cbl-b [2] (Cbl-b concentration (High or Low) not given, read-out: IC50 values in the Cbl-b inhibition assay of Biological Example 1), less than 1 nM; at Cbl-b [3] (setting [11]), less than 1 nM; at Cbl-b [7] (setting [11]), less than 1 nM.
Consider `Cn1cnnc1C(F)(F)[C@](C)(F)c1cccc(N2Cc3c(cc(CN4CC[C@H](F)C4)cc3C(F)(F)F)C2=O)c1` [Compound 57], for which the IC50 on Cbl-b [3] (setting [21]) and at Cbl-b [7] (setting [21]) was more than 5 nM in each case. The fold induction at 0.3 µM in [4] (setting [12]) is 1.25 to 1.39; in assay [5] (setting [12]), less than 10; in [6] (setting [12]), 1.25 to 1.39; in [9] (setting [12]) it was less than 10. Moreover, the fold induction at 1 µM in [4] (setting [13]) is more than 1.39; in [4] (setting [14]) it was more than 1.14; in assay [5] (setting [15]), 11 to 15; in assay [5] (setting [16]), less than 0.33; in assay [6] (setting [17]), more than 1.39; in assay [6] (setting [18]), more than 1.14. Further, the values for the fold induction at 1 µM in [9] (setting [19]) and in [9] (setting [20]) were 10 to 15 and less than 0.33, respectively.
With `Cn1cnnc1CC1(c2cccc(N3Cc4c(cc(CN5CCC6(CC6)C5)cc4C(F)(F)F)C3=O)c2)COC1` [Compound 59], the IC50 on Cbl-b [3] (setting [21]) and at Cbl-b [7] (setting [21]) was 1 to 5 nM throughout. Besides, the fold induction at 0.3 µM was 1.25 to 1.39 in [4] (setting [12]), more than 15 in assay [5] (setting [12]), 1.25 to 1.39 in assay [6] (setting [12]) and more than 15 in assay [9] (setting [12]). In addition, the fold induction at 1 µM in assay [4] (setting [13]) was more than 1.39; in assay [4] (setting [14]), more than 1.14; in assay [5] (setting [15]), more than 15; in [5] (setting [16]), less than 0.33; in [6] (setting [17]), more than 1.39; in [6] (setting [18]), more than 1.14. Moreover, the fold induction at 1 µM in [9] (setting [19]) was more than 15; in assay [9] (setting [20]) it was less than 0.33. For the same molecule, the fold induction at 3 µM in [4] (anti-CD3 alone) was more than 1.14; in [5] (anti-CD3 alone) it was 0.34 to 0.66; in assay [6] (anti-CD3 alone), more than 1.14; in [9] (anti-CD3 alone), 0.34 to 0.66.
On to `Cn1cnnc1C(F)(F)[C@](C)(F)c1cccc(N2Cc3c(cc(CN4CCC(F)(F)C4)cc3C(F)(F)F)C2=O)c1` [Compound 58], for which the IC50 at Cbl-b [3] (setting [21]) and on Cbl-b [7] (setting [21]) was more than 5 nM in each case. Further, the fold induction at 0.3 µM in assay [4] (setting [12]) was less than 1.24; in assay [5] (setting [12]) it was less than 10; in assay [6] (setting [12]), less than 1.24; in assay [9] (setting [12]) it was less than 10. The fold induction at 1 µM was 1.25 to 1.39 in assay [4] (setting [13]); less than 1.04 in assay [4] (setting [14]); less than 10 in assay [5] (setting [15]); less than 0.33 in assay [5] (setting [16]); 1.25 to 1.39 in assay [6] (setting [17]); less than 1.04 in [6] (setting [18]). Further, the fold induction at 1 µM in [9] (setting [19]) was less than 10; in assay [9] (setting [20]) it was less than 0.33.
For the molecule `C[C@@H](c1cc2c(c(C(F)(F)F)c1)CN(c1cccc(C3([C@@H](F)c4nncn4C)COC3)c1)C2=O)N1CCC2(CC2)C1` [Compound 60], the IC50 at Cbl-b [3] (setting [21]) and on Cbl-b [7] (setting [21]) was 1 to 5 nM throughout. Also, the fold induction at 0.3 µM in [4] (setting [12]) was more than 1.39; in [5] (setting [12]), more than 15; in assay [6] (setting [12]) it was more than 1.39; in [9] (setting [12]), more than 15. The fold induction at 1 µM in assay [4] (setting [13]) was more than 1.39; in assay [4] (setting [14]) it was more than 1.14; in assay [5] (setting [15]), more than 15; in [5] (setting [16]), 0.34 to 0.66; in assay [6] (setting [17]), more than 1.39; in [6] (setting [18]) it was more than 1.14. Further, the fold induction at 1 µM was more than 15 in assay [9] (setting [19]) and 0.34 to 0.66 in assay [9] (setting [20]). Further, the fold induction at 3 µM in [4] (anti-CD3 alone) was more than 1.14; in [5] (anti-CD3 alone) it was 0.34 to 0.66; in assay [6] (anti-CD3 alone), more than 1.14; in [9] (anti-CD3 alone) it was 0.34 to 0.66.
